Assay results from ChEMBL document CHEMBL4823315 (Bioorg Med Chem Lett, 2021).
Values after ≈ are worked out from the molar mass of the structure shown.

Key:
[1] = Cmax in cynomolgus monkey at 0.5 mg/kg, po; assay type: ADME, organism-based, Macaca fascicularis; set-up: route oral, dose 0.5 mg/kg; conditions: in vivo
Cytochrome P450 3A4 = Cytochrome P450 3A4 (Homo sapiens, UniProt P08684); assay: Inhibition of CYP3A4 (unknown origin); assay type: ADME
[2] = Thermodynamic solubility of the compound at pH 1.2; assay type: physicochemical; conditions: buffer, read-out: Therm_solubility
[3] = In vivo Inhibition of Akt/p70S6K in mouse xenografted with human MDA-MB-436 cells assessed as reduction in S6 phosphorylation in tumor at 75 mg/kg, po measured after 24 hrs; assay type: functional; conditions: MDA-MB-436, po
[4] = AUC in CD-1 mouse at 5 mg/kg, po; assay type: ADME, organism-based; set-up: dose 5 mg/kg; conditions: in vivo
[5] = AUC in CD-1 mouse at 5 mg/kg, iv; assay type: ADME, organism-based; set-up: dose 5 mg/kg; conditions: in vivo
[6] = Clearance in CD-1 mouse at 5 mg/kg, po or 5 mg/kg, iv; assay type: ADME, organism-based; conditions: in vivo
[7] = target: Voltage-gated inwardly rectifying potassium channel KCNH2 (Homo sapiens, UniProt Q12809); assay: Inhibition of human ERG by patch clamp assay
[8] = Oral bioavailability in CD-1 mouse at 5 mg/kg; assay type: ADME, organism-based; conditions: in vivo
[9] = Inhibition of p70S6K (unknown origin); set-up: species or system Homo sapiens
[10] = Half life in cynomolgus monkey at 0.5 mg/kg, po or 0.2 mg/kg, iv; assay type: ADME, organism-based, Macaca fascicularis; conditions: in vivo
[11] = Oral bioavailability in Beagle dog at 0.5 mg/kg; assay type: ADME, organism-based, Canis lupus familiaris; conditions: in vivo
[12] = Thermodynamic solubility of the compound at pH 7.4; assay type: physicochemical; conditions: buffer, read-out: Therm_solubility
[13] = Volume of distribution in CD-1 mouse at 5 mg/kg, po or 5 […], iv; assay type: ADME, organism-based; conditions: in vivo
[14] = Toxicity in mouse xenografted with human MDA-MB-436 cells assessed as loss of body weight at 200 mg/kg, po administered qd measured after 15 days; assay type: organism-based; conditions: in vivo, 360 h, time 15 day
[15] = Toxicity in mouse xenografted with human MDA-MB-436 cells assessed as loss of body weight at 25 to 75 mg/kg, po administered qd measured for 28 days; assay type: organism-based; conditions: in vivo, 672 h, dose 25-75 mg/kg, time 28 day
[16] = AUC in cynomolgus monkey at 0.5 mg/kg, po; assay type: ADME, organism-based, Macaca fascicularis; set-up: dose 0.5 mg/kg; conditions: in vivo
[17] = In vivo Inhibition of Akt/p70S6K in mouse xenografted with human MDA-MB-436 cells assessed as reduction in S6 phosphorylation in tumor at 25 to 200 mg/kg, po measured after 4 to 8 hrs; assay type: functional; conditions: dose 25-200 mg/kg, time 4-8 hrs
[18] = Toxicity in po dosed mouse xenografted with human MDA-MB-436 cells administered daily; assay type: organism-based; conditions: in vivo
[19] = Clearance in cynomolgus monkey at 0.5 mg/kg, po or 0.2 mg/kg, iv; assay type: ADME, organism-based, Macaca fascicularis; conditions: in vivo
MDA-MB-436 [20] = assay: Antitumor activity against human MDA-MB-436 cells xenografted in mouse assessed as tumor growth inhibition at 75 mg/kg, po qd and measured for 28 days; assay type: functional; conditions: MDA-MB-436, po, 672 h, time 28 day, read-out: TGI
[21] = AUC in Beagle dog at 0.5 mg/kg, po; assay type: ADME, organism-based, Canis lupus familiaris; set-up: dose 0.5 mg/kg; conditions: in vivo
[22] = AUC in Sprague-Dawley rat at 5 mg/kg, po; assay type: ADME, organism-based; set-up: dose 5 mg/kg; conditions: in vivo
[23] = Apparent permeability across apical to basal side in human Caco-2 cells; assay type: ADME, cell-based
[24] = Oral bioavailability in cynomolgus monkey at 0.5 mg/kg; assay type: ADME, organism-based, Macaca fascicularis; conditions: in vivo
Cytochrome P450 2C9 = Cytochrome P450 2C9 (Homo sapiens, UniProt P11712); assay: Inhibition of CYP2C9 (unknown origin); assay type: ADME
[25] = Cmax in CD-1 mouse at 5 mg/kg, po; assay type: ADME, organism-based; set-up: route oral, dose 5 mg/kg; conditions: in vivo
[26] = Half life in Sprague-Dawley rat at 5 mg/kg, po or 5 mg/kg, iv; assay type: ADME, organism-based; conditions: in vivo
Cytochrome P450 2C8 = target: T1, Cytochrome P450 2C8 (Homo sapiens, UniProt P10632); assay: Inhibition of CYP2C8 (unknown origin); assay type: ADME
T1 sequence (P10632 whole entry): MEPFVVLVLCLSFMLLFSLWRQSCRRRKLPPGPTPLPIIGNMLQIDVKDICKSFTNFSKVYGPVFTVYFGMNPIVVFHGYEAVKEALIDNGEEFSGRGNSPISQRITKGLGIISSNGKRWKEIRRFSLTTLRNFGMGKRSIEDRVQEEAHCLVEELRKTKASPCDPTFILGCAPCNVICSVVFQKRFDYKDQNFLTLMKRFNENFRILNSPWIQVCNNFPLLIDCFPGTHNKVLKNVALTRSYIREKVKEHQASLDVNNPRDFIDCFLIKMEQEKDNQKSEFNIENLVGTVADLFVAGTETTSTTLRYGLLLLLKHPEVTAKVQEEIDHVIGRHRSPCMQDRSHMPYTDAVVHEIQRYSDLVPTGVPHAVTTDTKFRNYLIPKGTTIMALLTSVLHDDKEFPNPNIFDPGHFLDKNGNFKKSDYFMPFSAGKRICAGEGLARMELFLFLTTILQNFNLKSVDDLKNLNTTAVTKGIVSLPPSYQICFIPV

Cytochrome P450 1A2 = target: T2, Cytochrome P450 1A2 (Homo sapiens, UniProt P05177); assay: Inhibition of CYP1A2 (unknown origin); assay type: ADME
T2 sequence (P05177 whole entry): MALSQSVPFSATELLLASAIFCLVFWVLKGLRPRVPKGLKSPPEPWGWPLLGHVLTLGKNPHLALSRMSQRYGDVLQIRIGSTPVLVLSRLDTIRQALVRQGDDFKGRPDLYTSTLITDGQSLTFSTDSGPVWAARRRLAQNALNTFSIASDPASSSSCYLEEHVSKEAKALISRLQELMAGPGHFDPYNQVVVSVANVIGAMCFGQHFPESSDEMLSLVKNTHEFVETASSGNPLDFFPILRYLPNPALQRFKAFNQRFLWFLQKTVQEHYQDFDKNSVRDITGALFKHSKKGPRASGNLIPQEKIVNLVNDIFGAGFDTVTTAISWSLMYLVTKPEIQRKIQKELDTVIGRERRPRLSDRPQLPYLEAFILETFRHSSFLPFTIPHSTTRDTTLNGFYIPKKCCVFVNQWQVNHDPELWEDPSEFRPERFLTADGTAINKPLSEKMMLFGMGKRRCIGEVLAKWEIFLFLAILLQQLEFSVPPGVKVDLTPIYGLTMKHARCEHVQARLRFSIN

Cytochrome P450 2D6 = Cytochrome P450 2D6 (Homo sapiens, UniProt P10635); assay: Inhibition of CYP2D6 (unknown origin); assay type: ADME
[27] = target: Serine/threonine-protein kinase AKT (Homo sapiens, UniProt P31751+Q9Y243+P31749); assay: Inhibition of Akt (unknown origin); assay type: protein assay
[28] = Protein binding in mouse plasma assessed as unbound fraction; assay type: ADME, cell-free
MDA-MB-436 [29] = assay: Antitumor activity against human MDA-MB-436 cells xenografted in mouse assessed as tumor growth inhibition at 200 mg/kg, po qd and measured for 28 days; assay type: functional; conditions: MDA-MB-436, po, 672 h, time 28 day, read-out: TGI
[30] = Half life in CD-1 mouse at 5 mg/kg, po or 5 mg/kg, iv; assay type: ADME, organism-based; conditions: in vivo
[31] = Clearance in Beagle dog at 0.5 mg/kg, po or 0.2 mg/kg, iv; assay type: ADME, organism-based, Canis lupus familiaris; conditions: in vivo
[32] = Oral bioavailability in Sprague-Dawley rat at 5 mg/kg; assay type: ADME, organism-based; conditions: in vivo

Voltage-gated inwardly rectifying potassium channel KCNH2, sequence (Q12809 whole entry): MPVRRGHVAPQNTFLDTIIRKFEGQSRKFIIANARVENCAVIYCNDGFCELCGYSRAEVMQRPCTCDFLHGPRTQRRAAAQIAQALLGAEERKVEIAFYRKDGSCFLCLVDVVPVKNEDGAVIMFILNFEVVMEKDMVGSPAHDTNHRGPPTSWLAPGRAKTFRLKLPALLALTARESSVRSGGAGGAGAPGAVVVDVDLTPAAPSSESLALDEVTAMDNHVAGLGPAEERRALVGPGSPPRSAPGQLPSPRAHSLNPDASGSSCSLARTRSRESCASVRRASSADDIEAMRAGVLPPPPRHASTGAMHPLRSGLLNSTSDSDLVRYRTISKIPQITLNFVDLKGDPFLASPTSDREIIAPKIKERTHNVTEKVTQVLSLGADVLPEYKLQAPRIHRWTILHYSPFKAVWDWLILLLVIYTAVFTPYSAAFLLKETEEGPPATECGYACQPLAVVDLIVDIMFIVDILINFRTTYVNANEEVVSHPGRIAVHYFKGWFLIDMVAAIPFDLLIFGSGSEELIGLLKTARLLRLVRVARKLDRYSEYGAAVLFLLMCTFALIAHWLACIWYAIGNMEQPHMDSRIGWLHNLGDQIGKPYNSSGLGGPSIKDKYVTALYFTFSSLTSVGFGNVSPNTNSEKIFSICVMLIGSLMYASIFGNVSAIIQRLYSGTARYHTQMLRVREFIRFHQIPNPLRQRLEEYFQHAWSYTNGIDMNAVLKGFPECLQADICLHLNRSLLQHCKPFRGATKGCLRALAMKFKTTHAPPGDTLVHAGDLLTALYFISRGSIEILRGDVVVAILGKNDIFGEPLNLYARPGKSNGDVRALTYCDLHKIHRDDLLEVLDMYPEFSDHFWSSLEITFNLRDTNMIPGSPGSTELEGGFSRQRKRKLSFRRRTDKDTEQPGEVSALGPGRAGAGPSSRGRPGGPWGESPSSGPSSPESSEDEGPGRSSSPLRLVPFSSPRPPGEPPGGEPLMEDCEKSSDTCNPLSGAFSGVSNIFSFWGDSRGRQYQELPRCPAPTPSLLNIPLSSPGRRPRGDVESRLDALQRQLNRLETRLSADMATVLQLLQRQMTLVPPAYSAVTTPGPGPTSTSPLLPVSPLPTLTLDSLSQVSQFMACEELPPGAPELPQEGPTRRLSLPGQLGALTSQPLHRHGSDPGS
Cytochrome P450 3A4, sequence (P08684 whole entry): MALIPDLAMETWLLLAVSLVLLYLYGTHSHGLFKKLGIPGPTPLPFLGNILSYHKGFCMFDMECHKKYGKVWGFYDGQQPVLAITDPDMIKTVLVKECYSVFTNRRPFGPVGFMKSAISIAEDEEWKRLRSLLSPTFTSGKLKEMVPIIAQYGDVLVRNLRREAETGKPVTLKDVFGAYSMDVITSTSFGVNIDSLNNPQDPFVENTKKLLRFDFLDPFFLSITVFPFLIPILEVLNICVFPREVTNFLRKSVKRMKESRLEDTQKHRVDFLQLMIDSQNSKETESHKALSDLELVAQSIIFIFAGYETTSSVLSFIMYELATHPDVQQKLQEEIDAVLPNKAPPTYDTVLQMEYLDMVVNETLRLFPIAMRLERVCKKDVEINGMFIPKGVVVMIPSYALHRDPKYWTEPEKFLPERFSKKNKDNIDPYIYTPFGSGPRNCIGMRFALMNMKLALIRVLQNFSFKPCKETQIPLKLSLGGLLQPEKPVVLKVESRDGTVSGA
Cytochrome P450 2C9, sequence (P11712 whole entry): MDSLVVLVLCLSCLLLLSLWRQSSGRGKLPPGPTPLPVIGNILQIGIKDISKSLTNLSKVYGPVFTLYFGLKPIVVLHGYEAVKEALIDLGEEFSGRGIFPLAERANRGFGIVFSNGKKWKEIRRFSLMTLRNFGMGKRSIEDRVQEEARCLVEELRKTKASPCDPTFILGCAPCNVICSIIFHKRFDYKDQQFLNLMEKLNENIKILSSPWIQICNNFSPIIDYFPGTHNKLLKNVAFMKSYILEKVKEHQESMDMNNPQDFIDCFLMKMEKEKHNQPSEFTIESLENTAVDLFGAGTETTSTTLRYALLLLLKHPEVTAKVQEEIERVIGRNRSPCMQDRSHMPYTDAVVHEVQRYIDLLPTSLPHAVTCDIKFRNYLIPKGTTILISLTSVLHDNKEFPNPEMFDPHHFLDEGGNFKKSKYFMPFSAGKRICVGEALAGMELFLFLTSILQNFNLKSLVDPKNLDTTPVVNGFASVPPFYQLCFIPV
Cytochrome P450 2D6, sequence (P10635 whole entry): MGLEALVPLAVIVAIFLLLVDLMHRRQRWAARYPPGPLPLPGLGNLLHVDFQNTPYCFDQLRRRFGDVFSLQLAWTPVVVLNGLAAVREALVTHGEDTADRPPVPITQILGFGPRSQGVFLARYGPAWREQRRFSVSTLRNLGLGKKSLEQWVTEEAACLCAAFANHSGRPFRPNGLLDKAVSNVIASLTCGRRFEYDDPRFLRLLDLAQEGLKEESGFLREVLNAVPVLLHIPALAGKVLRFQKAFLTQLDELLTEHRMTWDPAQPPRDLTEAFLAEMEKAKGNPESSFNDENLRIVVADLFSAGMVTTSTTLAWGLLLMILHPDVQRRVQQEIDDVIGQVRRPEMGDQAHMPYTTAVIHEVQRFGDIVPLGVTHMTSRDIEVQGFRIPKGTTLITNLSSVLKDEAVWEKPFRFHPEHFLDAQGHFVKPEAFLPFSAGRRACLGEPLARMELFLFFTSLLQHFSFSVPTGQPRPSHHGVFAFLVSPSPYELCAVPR

With NC(=O)c1c(N)ncnc1N1CCC(c2nc(-c3ccc(F)c(C(F)(F)F)c3)cn2CCN2CCC2)CC1 the Cmax [1] was 9.7 ng/mL, the IC50 (Cytochrome P450 3A4) was > 20 µM and the solubility thermodynamic [2] was 2960 µg/mL (≈ 5560 µM). The inhibition in vivo at 75 mg/kg [3] was 87%, the AUC [4] was 417 ng·h/mL and the AUC [5] was 662 ng·h/mL. For the same compound, the clearance [6] was 25 mL/min/kg, the IC50 [7] was 17.4 µM and the bioavailability [8] was 63%. The IC50 [9] was 0.003 µM, the half-life [10] was 4 h and the bioavailability [11] was 65%. For the same compound, the solubility thermodynamic [12] was 4 µg/mL (≈ 7.51 µM), the Vd [13] was 19.3 L/kg and the Activity [14] was > 5%. For the same compound, the Activity [15] was < 5%, the AUC [16] was 82 ng·h/mL and the “inhibition (INH)” value [17] was >95%. The MTD [18] was ≤ 200 mg/kg, the clearance [19] was 42.8 mL/min/kg and the inhibition in vivo at 75 mg/kg (MDA-MB-436 [20]) was 100%. The AUC [21] was 2370 ng·h/mL, the AUC [22] was 43.4 ng·h/mL and the Papp A→B [23] was 5.3 ×10⁻⁶ cm/s. For the same compound, the bioavailability [24] was 23%, the IC50 (Cytochrome P450 2C9) was > 20 µM and the Cmax [25] was 57 ng/mL. The half-life [26] was 1.5 h, the IC50 (Cytochrome P450 2C8) was > 20 µM and the IC50 (Cytochrome P450 1A2) was > 20 µM. The IC50 (Cytochrome P450 2D6) was > 20 µM, the IC50 [27] was 0.016 µM and the fraction unbound [28] was 0.21. For the same compound, the inhibition in vivo at 200 mg/kg (MDA-MB-436 [29]) was 98%, the half-life [30] was 9.3 h and the clearance [31] was 4.67 mL/min/kg. The bioavailability [32] was 17%.
